Laboratory results taken from patent EP4759810A1, “PROTAC TARGETING BCL-XL PROTEIN AND USE THEREOF” (BEIJING SUNCELL BIO-MEDICAL CO., LTD., priority 2023, dated 2025).
Where two headings read alike, the source gives them in different places.

Experiments:
Molt-4 cells [1] = test: Detection of E3 enzyme-dependence: Molt-4 cell killing with or without pomalidomide (CCK-8); format: cell-based; conditions: 10 µM pomalidomide, Figure 2
platelets = test: In vivo platelet toxicity test in mice
Procedure: The in vivo platelet toxicity test was performed by using 5-6 week old female C57BL/6J mice. The C57BL/6J mice were purchased from Beijing Vital River Laboratory Animal Technology Co., Ltd. and housed under specific pathogen-free (SPF) conditions, with a 12-hour light/12-hour dark cycle, and free access to food and water. […] Different doses of the molecules to be tested (e.g., 0.1, 0.5, 2.5 mg/kg or 2, 5, 20 mg/kg) were prepared in advance with the aforementioned vehicle, and administered to mice via intraperitoneal injection at a volume of 200 µL for each mouse. After administration was completed, approximately 50 µL of blood was collected from each mouse at different time points via the intra-canthus sampling method into EDTA anticoagulant tubes (RAM Scientific), then a routine analysis of blood was performed by using a hematology analyzer, and the platelets was counted.

Bcl-xL protein = biological target: T1, Bcl-xL protein (Homo sapiens, UniProt Q07817); test: Degradation experiment of Bcl-xL target protein (Western blot in Molt-4 cells); format: cell-based; conditions: 100 nM, 0, 2, 6, 16 h, GAPDH internal control, Figure 4
T1 construct: host or cells: Molt-4 cells

Molt-4 cells [2] = test: Molt-4 cell killing activity test (CCK-8); format: cell-based; conditions: for EC50: Homo sapiens
How it was run: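 Molt-4 cells in RPMI-1640 with 10% FBS were exposed to compounds at 0.001–3 µM final, triplicate wells, for three days at 37°C. Viability was read by CCK-8 absorbance at 450 nm after 0.5–2 h, expressed relative to blank control.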

[3] = 72 h, Molt-4 cells, three days, CCK-8, read-out: EC50 (Molt-4)
[4] = Bcl-xL-positive Molt-4 cells, read-out: cellular activity / killing activity (Molt-4 cells)

T1 sequence (Q07817 whole entry): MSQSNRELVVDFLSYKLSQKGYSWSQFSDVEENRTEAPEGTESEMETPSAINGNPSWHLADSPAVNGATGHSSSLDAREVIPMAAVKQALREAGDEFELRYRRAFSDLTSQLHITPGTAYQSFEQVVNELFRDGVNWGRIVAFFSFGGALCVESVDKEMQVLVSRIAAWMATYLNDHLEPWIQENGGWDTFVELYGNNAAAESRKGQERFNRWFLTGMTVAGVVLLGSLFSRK

| Structure (SMILES) | cell killing activity after addition of pomalidomide (+poma) compared to without (-poma) (Molt-4 cells [1]) | platelet number (platelets; intraperitoneal, three tested dose groups 0.1, 0.5, and 2.5 mg/kg, Figure 5A) | degradation of the Bcl-xL protein (Bcl-xL protein) | killing Molt-4 cells at different concentrations (Figure 1), in words (Molt-4 cells [2]; Figure 1, 0.001-3 µM, comparison with control molecules) | EC50 (Molt-4 cells [2]; [3]) [nM] | EC50 (Molt-4 cells [2]; [4]) [nM] | platelet number in peripheral blood, in words (platelets; intraperitoneal, 5 mg/kg, Figure 5B) | platelet number at the highest dose (platelets; intraperitoneal, 20 mg/kg, decrease lower than A-1331852 at 2 mg/kg, Figure 5C) | platelet toxicity compared to A-1331852 at equivalent doses (platelets; intraperitoneal, 2, 5, and 20 mg/kg, Figure 5C) |
| --- | --- | --- | --- | --- | --- | --- | --- | --- | --- |
| O=C1CCC(N2C(=O)c3cccc(NCCN4CCC(CN5CCN(CC#Cc6ccc(OCCCc7ccc(N8CCc9cccc(C(=O)Nc%10nc%11ccccc%11s%10)c9C8)nc7C(=O)O)c(F)c6)CC5)CC4)c3C2=O)C(=O)N1 (stereo not shown) [APQ2] | significantly reduced cell killing activity | no significant decrease in platelet number | had the ability to degrade the Bcl-xL protein | comparable to A-1331852 | < 10 | < 10 |  |  |  |
| O=C1CCN(c2ccc(N3CCC(CN4CCN(CC#Cc5ccc(OCCCc6ccc(N7CCc8cccc(C(=O)Nc9nc%10ccccc%10s9)c8C7)nc6C(=O)O)c(F)c5)CC4)CC3)cc2)C(=O)N1 [APQ10] | significantly reduced cell killing activity |  | had the ability to degrade the Bcl-xL protein |  | < 10 | < 10 | slightly decrease in platelet number | significant decrease in the platelet number | lower platelet toxicity |
